Source: patent US5925730A, “GnRH antagonists” (Ferring BV, priority 1997, dated 1999)
Blank lines part the entries; values can stand above or below the compound they belong to. Starred links: 1 amine or outer side, 2 acyl side, 3 side chain; linkers in the order of their positions; H or OH if unused. Non-standard residues stand in square brackets, D forms with d. Residues, ends and D or L forms follow the SMILES beside them. Groups on a side chain read outwards from the residue. *: point of attachment. dPhe(4-NHCONH2) = NC(=O)Nc1ccc(C[C@@H](N)C(=O)O)cc1; Phe(4-NHCONH2) = NC(=O)Nc1ccc(C[C@H](N)C(=O)O)cc1; dPhe(4-NH2) = Nc1ccc(C[C@@H](N)C(=O)O)cc1; dPhe(4-Cl) = N[C@H](Cc1ccc(Cl)cc1)C(=O)O; Phe(4-NH2) = Nc1ccc(C[C@H](N)C(=O)O)cc1; d2Nal = N[C@H](Cc1ccc2ccccc2c1)C(=O)O; Lys(iPr) = CC(C)NCCCC[C@H](N)C(=O)O; d3Pal = N[C@H](Cc1cccnc1)C(=O)O; X1 = O=C1NC[C@@H](C(=O)*)N1; CO = O=C([*:1])[*:2]

Tests used:
secretion of LH = assay: in vivo rat LH suppression test (circulating LH levels in castrated male rats after sc injection); set-up: species or system castrated male Sprague-Dawley rats; details: for effectiveness in suppression of LH compared with Acyline, day 1 through day 4 (96 hours): days 1-4; for effectiveness in suppression of LH compared with Acyline, first two days: days 1-2; for suppression of LH compared with Acyline at days 3 and 4 (72 and 96 hours; after the first 2 days): days 3-4; for effectiveness in suppression of LH compared with Acyline, day 1 through day 3: days 1-3
Procedure: The peptide is assayed in vivo to determine its effectiveness to suppress the secretion of LH in rats. Measurement of circulating LH levels in castrated male Sprague-Dawley rats treated subcutaneously with the peptide is carried out as reported in C. Rivier et al. Biol. Reproduc., 1983, 29, 374-378. The peptides are first dissolved at a concentration of 1.0 or 10 mg/ml in bacteriostatic water and then further diluted in 0.04 M phosphate buffer containing 0.1% BSA. Subsequent dilutions are made in phosphate buffer. The peptides are injected sc into 5 rats, and blood samples (300 μl) are collected under metotane anesthesia. Sera (50 μl) are tested for LH levels in duplicate using reagents provided by the National Pituitary and Hormone Distribution Program of the NIDDK.

[1] = water solubility compared with Acyline; format: physicochemical
[2] = hydrophilicity by RP-HPLC retention time (TEAP pH 7.0 / CH3CN gradient); format: physicochemical; details: for hydrophilicity compared with Azaline B: RP-HPLC elution

Compound: CC(=O)N[C@H](Cc1ccc2ccccc2c1)C(=O)N[C@H](Cc1ccc(Cl)cc1)C(=O)N[C@H](Cc1cccnc1)C(=O)N[C@@H](CO)C(=O)N[C@@H](Cc1ccc(NC(N)=O)cc1)C(=O)N[C@H](Cc1ccc(NC(N)=O)cc1)C(=O)N[C@@H](CC(C)C)C(=O)N[C@@H](CCCCNC(C)C)C(=O)N1CCC[C@H]1C(=O)N[C@H](C)C(N)=O [Example 1L, Ac-β-D-2Nal-D-4Cpa-D-3Pal-Ser-4Aph(carbamoyl)-D-4Aph(carbamoyl)-Leu-Lys(isopropyl)-Pro-D-Ala-NH2] (Ac-[d2Nal][dPhe(4-Cl)][d3Pal]S[Phe(4-NHCONH2)][dPhe(4-NHCONH2)]L[Lys(iPr)]P[dA]-NH2)
- duration of bioactivity for the suppression of LH (rating in words) (secretion of LH; 50 micrograms sc): long-acting
- effectiveness in suppression of LH compared with Acyline, day 1 through day 4 (96 hours) (secretion of LH; 50 micrograms sc): about as effective as Acyline

Compound: CNC(=O)Nc1ccc(C[C@H](NC(=O)[C@H](CO)NC(=O)[C@@H](Cc2cccnc2)NC(=O)[C@@H](Cc2ccc(Cl)cc2)NC(=O)[C@@H](Cc2ccc3ccccc3c2)NC(C)=O)C(=O)N[C@H](Cc2ccc(NC(=O)NC)cc2)C(=O)N[C@@H](CC(C)C)C(=O)N[C@@H](CCCCNC(C)C)C(=O)N2CCC[C@H]2C(=O)N[C@H](C)C(N)=O)cc1 [Example 1M, Ac-β-D-2Nal-D-4Cpa-D-3Pal-Ser-4Aph(methylcarbamoyl)-D-4Aph(methylcarbamoyl)-Leu-Lys(isopropyl)-Pro-D-Ala-NH2] (Ac-[d2Nal][dPhe(4-Cl)][d3Pal]S[Phe(4-NH2)]([CO-NHMe])[dPhe(4-NH2)]([CO-NHMe])L[Lys(iPr)]P[dA]-NH2)
- effectiveness in suppression of LH compared with Acyline, first two days (secretion of LH; 50 micrograms sc): about as effective as Acyline
- suppression of LH compared with Acyline at days 3 and 4 (72 and 96 hours; after the first 2 days) (secretion of LH; 50 micrograms sc): begins to drop off somewhat

- water solubility compared with Acyline [1]: more water soluble than Acyline
Compound: CC(=O)Nc1ccc(C[C@@H](NC(=O)[C@H](Cc2ccc(NC(=O)[C@@H]3CNC(=O)N3)cc2)NC(=O)[C@H](CO)NC(=O)[C@@H](Cc2cccnc2)NC(=O)[C@@H](Cc2ccc(Cl)cc2)NC(=O)[C@@H](Cc2ccc3ccccc3c2)NC(C)=O)C(=O)N[C@@H](CC(C)C)C(=O)N[C@@H](CCCCNC(C)C)C(=O)N2CCC[C@H]2C(=O)N[C@H](C)C(N)=O)cc1 [Example 3A] (Ac-[d2Nal][dPhe(4-Cl)][d3Pal]S[Phe(4-NH2)](X1)[dPhe(4-NH2)](Ac)L[Lys(iPr)]P[dA]-NH2)

Compound: Ac-D-2Nal-D-4Cpa-D-3Pal-Ser-4Aph(D-hydroorotyl)-D-4Amf(Ac)-Leu-ILys-Pro-D- Ala-NH2 [Example 5A]
- suppression of LH compared with Acyline at 96 hours / 4 days (after day 3) (secretion of LH; 50 micrograms sc, 96 hours): somewhat superior to Acyline
- effectiveness in suppression of LH compared with Acyline, day 1 through day 3 (secretion of LH; 50 micrograms sc): substantially the same as Acyline

Compound: Ac-D-2Nal-D-4Cpa-D-3Pal-Ser-4Aph(D-hydroorotyl)-D-4Amf(Cbm)-Leu-ILys-Pro-D-Ala-NH2 [Example 5]
- effectiveness in suppression of LH compared with Acyline, first two days (secretion of LH; 50 micrograms sc): about as long as Acyline
- suppression of LH compared with Acyline at days 3 and 4 (72 and 96 hours; after the first 2 days) (secretion of LH; 50 micrograms sc): some lesser degree of suppression

Compound: Ac-D-2Nal-D-4Cpa-D-3Pal-Ser-4Aph(D/L-2-imidazolidone-4-carbonyl)-D-4Aph(Ac)-Leu-ILys-Pro-D-Ala-NH2 [Example 3]
- duration of bioactivity for the suppression of LH (rating in words) (secretion of LH; 50 micrograms sc): long duration
- suppression of LH compared with Acyline at days 3 and 4 (72 and 96 hours; after the first 2 days) (secretion of LH; 50 micrograms sc): marginally better

Compound: Ac-D-2Nal-D-4Cpa-D-3Pal-Ser-4Aph(L-Imz)-D-4Amf(carbamoyl)-Leu-ILys-Pro-D-Ala-NH2 [Example 3B]
- duration of bioactivity for the suppression of LH (rating in words) (secretion of LH; 50 micrograms sc): long duration
- suppression of LH compared with Acyline at 96 hours / 4 days (after day 3) (secretion of LH; 50 micrograms sc, 96 hours): somewhat superior
- effectiveness in suppression of LH compared with Acyline, day 1 through day 3 (secretion of LH; 50 micrograms sc): substantially the same as Acyline

Compound: Ac-D-2Nal-D-4Cpa-D-3Pal-Ser-4Aph(hydroorotyl)-D-4Amf(MeCbm)-Leu-ILys-Pro-D-Ala-NH2 [Example 4]
- duration of bioactivity for the suppression of LH (rating in words) (secretion of LH; 50 micrograms sc): very long-acting
- suppression of LH secretion compared with Acyline (time not given) (secretion of LH; 50 micrograms sc): better suppression of LH secretion than Acyline

- hydrophilicity compared with Cetrorelix [2]: more hydrophilic than Cetrorelix
Compound: Ac-D-2Nal-D-4Cpa-D-3Pal-Ser-4Aph(hydroorotyl)-D-Cit-Leu-ILys-Pro-D-Ala-NH2 [Example 2]
- suppression of LH at 3 days (comparator apparently Cetrorelix) (secretion of LH; tested as in Example 1, 3 days): marginally better
- suppression of LH at 96 hours (comparator apparently Cetrorelix) (secretion of LH; tested as in Example 1, 96 hours): substantially better
- duration of bioactivity for suppression of LH secretion compared with Cetrorelix (secretion of LH; tested as in Example 1, dose not given): as long duration of bioactivity as Cetrorelix

Compound: Ac-β-D-2Nal-D-4Cpa-D-3Pal-Ser-4Amf(D-hydroorotyl)-D-4Aph(acetyl)-Leu- Lys(isopropyl)-Pro-D-Ala-NH2 [Example 6C]
- activity in suppression of LH secretion compared with Acyline after 3 days (secretion of LH; 50 micrograms sc, 3 days): substantially less effective than Acyline
- suppression of LH compared with Acyline at 96 hours / 4 days (after day 3) (secretion of LH; 50 micrograms sc, 96 hours): continues to significantly drop in biopotency
- effectiveness in suppression of LH compared with Acyline, first two days (secretion of LH; 50 micrograms sc): substantially as effective

Compound: Ac-β-D-2Nal-D-4Cpa-D-3Pal-Ser-4Amf(hydroorotyl)-D-4Amf(acetyl)-Leu-Lys(isopropyl)-Pro-D-Ala-NH2 [Example 6]
- duration of bioactivity for the suppression of LH (rating in words) (secretion of LH; 50 micrograms sc): long-acting
- effectiveness in suppression of LH compared with Acyline, first two days (secretion of LH; 50 micrograms sc): about the same as Acyline
- suppression of LH compared with Acyline at days 3 and 4 (72 and 96 hours; after the first 2 days) (secretion of LH; 50 micrograms sc): nearly equal to that of Acyline

Compound: Ac-β-D-2Nal-D-4Cpa-D-3Pal-Ser-4Amf(hydroorotyl)-D-4Aph(acetyl)-Leu-Lys(isopropyl)-Pro-D-Ala-NH2 [Example 1F]
- duration of bioactivity for the suppression of LH (rating in words) (secretion of LH; 50 micrograms sc): long-acting
- effectiveness in suppression of LH compared with Acyline, day 1 through day 4 (96 hours) (secretion of LH; 50 micrograms sc): about as effective as Acyline

Compound: Ac-β-D-2Nal-D-4Cpa-D-3Pal-Ser-4Amf(hydroorotyl)-D-4Aph(carbamoyl)-Leu-Lys(isopropyl)-Pro-D-Ala-NH2 [Example 6A]
- activity in suppression of LH secretion compared with Acyline after 1 day (secretion of LH; 50 micrograms sc): as active as Acyline
- activity in suppression of LH secretion compared with Acyline after 2 days (secretion of LH; 50 micrograms sc): nearly as active
- activity in suppression of LH secretion compared with Acyline after 3 days (secretion of LH; 50 micrograms sc, 3 days): somewhat less active
- suppression of LH compared with Acyline at 96 hours / 4 days (after day 3) (secretion of LH; 50 micrograms sc, 96 hours): about the same activity as Acyline

Compound: Ac-β-D-2Nal-D-4Cpa-D-3Pal-Ser-4Amf(hydroorotyl)-D-4Aph(methylcarbamoyl)-Leu-Lys(isopropyl)-Pro-D-Ala-NH2 [Example 6B]
- activity in suppression of LH secretion compared with Acyline after 1 day (secretion of LH; 50 micrograms sc): as active as Acyline
- activity in suppression of LH secretion compared with Acyline after 2 days (secretion of LH; 50 micrograms sc): about as active
- suppression of LH compared with Acyline at days 3 and 4 (72 and 96 hours; after the first 2 days) (secretion of LH; 50 micrograms sc): significantly lesser degree of suppression

- hydrophilicity compared with Azaline B [2]: more hydrophilic than Azaline B
Compound: Ac-β-D-2Nal-D-4Cpa-D-3Pal-Ser-4Aph(hydroorotyl)-D-4Aph(D-hydroorotyl)-Leu-Lys(isopropyl)-Pro-D-Ala-NH2 [Example 1H]
- duration of bioactivity for the suppression of LH (rating in words) (secretion of LH; 50 micrograms sc): very long-acting
- suppression of LH compared with Acyline at 96 hours / 4 days (after day 3) (secretion of LH; 50 micrograms sc, 96 hours): substantially more effective than Acyline
- effectiveness in suppression of LH compared with Acyline, day 1 through day 3 (secretion of LH; 50 micrograms sc): about as effective as Acyline

- hydrophilicity compared with Azaline B [2]: more hydrophilic than Azaline B
Compound: Ac-β-D-2Nal-D-4Cpa-D-3Pal-Ser-4Aph(hydroorotyl)-D-4Aph(hydroorotyl)-Leu-Lys(isopropyl)-Pro-D-Ala-NH2 [Example 1G]
- duration of bioactivity for the suppression of LH (rating in words) (secretion of LH; 50 micrograms sc): long-acting
- effectiveness in suppression of LH compared with Acyline, day 1 through day 4 (96 hours) (secretion of LH; 50 micrograms sc): about as effective as Acyline

Compound: Ac-β-D-2Nal-D-Cpa-D-3Pal-Ser-4Aph(D-hydroorotyl)-D-4Aph(acetyl)-Leu-Lys(isopropyl)-Pro-D-Ala-NH2 [Example 1D]
- duration of bioactivity for the suppression of LH (rating in words) (secretion of LH; 50 micrograms sc): long-acting
- effectiveness in suppression of LH compared with Acyline, day 1 through day 4 (96 hours) (secretion of LH; 50 micrograms sc): about as effective as Acyline

Compound: Ac-β-D-2Nal-D-Cpa-D-3Pal-Ser-4Aph(D/L-hydroorotyl)-D-4Aph(acetyl)-Leu-Lys(isopropyl)-Pro-D-Ala-NH2 [Example 1C]
- duration of bioactivity for the suppression of LH (rating in words) (secretion of LH; 50 micrograms sc): long-acting
- effectiveness in suppression of LH compared with Acyline, day 1 through day 4 (96 hours) (secretion of LH; 50 micrograms sc): about as effective as Acyline

Compound: Ac-β-D-2Nal-D-Cpa-D-3Pal-Ser-4Aph(hydroorotyl)-D-4Aph(acetyl)-Leu-Lys(isopropyl)-Pro-D-Ala-NH2 [Example 1B]
- duration of bioactivity for the suppression of LH (rating in words) (secretion of LH; 50 micrograms sc): very long-acting
- effectiveness in suppression of LH compared with Acyline, day 1 through day 4 (96 hours) (secretion of LH; 50 micrograms sc): about as effective as Acyline

Compound: Acetyl-β-D-2Nal-D-4Cpa-D-3Pal-Ser-4Aph(hydroorotyl)-D-3Pal-Leu-Lys(isopropyl)-Pro-D-Ala-NH2 [Example 1K]
- duration of bioactivity for the suppression of LH (rating in words) (secretion of LH; 50 micrograms sc): very long-acting
- LH levels after 96 hours as percentage of the LH levels of rats injected with Acyline (secretion of LH; 50 micrograms sc, 96 hours, comparator Acyline 50 micrograms): about 35%
- effectiveness in suppression of LH compared with Acyline, day 1 through day 3 (secretion of LH; 50 micrograms sc): about as effective as Acyline

- hydrophilicity compared with Azaline B [2]: more hydrophilic than Azaline B
Compound: methylcarbamoyl-β-D-2Nal-D-4Cpa-D-3Pal-Ser-4Aph(hydroorotyl)-D-4Aph(acetyl)-Leu-Lys(isopropyl)-Pro-D-Ala-NH2 [Example 1J]
- duration of bioactivity for the suppression of LH (rating in words) (secretion of LH; 50 micrograms sc): very long-acting
- how much more effective than Acyline in suppression of LH after 96 hours (secretion of LH; 50 micrograms sc, 96 hours): ~50%
- effectiveness in suppression of LH compared with Acyline, day 1 through day 3 (secretion of LH; 50 micrograms sc): about as effective as Acyline
